In US20210369853A1, “TARGETED PROTEASE DEGRADATION PLATFORM” (EUBULUS BIOTHERAPEUTICS INC., priority 2018, published 2021):
pEC50: −log10 of the molar value. Like-named read-outs stand apart in the source and are kept apart here.

Experiments:
Assay type in all cases: cell-based
[1] = test system: Human Monocytic Leukemia MV4-11; test: Cell proliferation experiment (Alarm blue, 72 h, EC50); settings: Homo sapiens
Method in brief: (§1)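 Log-phase cells, passaged at least 2 generations, were seeded in 96-well plates and exposed to test compound in complete medium as a 5-fold dilution series in duplicate for 72 h. Fluorescence was read by Alamar blue and EC50 fitted to a four-parameter curve (Min, Max, Slope).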

BRD4 = target: T1, BRD4 (Homo sapiens, UniProt O60885); test: Western blot, protein degradation (DC50)
T1 construct: endogenous in cells
Description: (§2) Cells were treated with the compound for a period of time, after that the cells were collected by centrifugation. After washing with PBS, the cells were lysed by adding RIPA buffer; the cell lysate were added to the loading buffer and then appropriate volume were taken and slowly added to the corresponding wells of the gel plate, and run the SDS-PAGE gel (4%-12%). After running the gel, transferred to the PVDF membrane and sealed with 5% skimmed milk powder at room temperature for 1 hour. The membrane was placed in the primary antibody diluted with 5% skimmed milk powder and shaked slowly overnight at 4° C. After incubation with primary antibody, the membrane was washed 3 times using a TBST shaker; added secondary antibody diluted with 5% skimmed milk powder corresponding to the primary antibody, and shaked slowly at room temperature for 1 hour. After incubation with secondary antibody, the membrane was washed 3 times using the TBST shaker again. The PVDF membrane was flatted in the cassette, the strip was evenly infiltrated with ECL developer solution, and placed in ChemDoc XRS+ gel imager for taking pictures. The intensity of protein bands was analyzed quantitatively using ImageJ software.

PLK1 = target: T2, PLK1 (Homo sapiens, UniProt P53350); test: Western blot, protein degradation (DC50)
T2 construct: endogenous in cells
Description: as §2

HUVEC = test: Cell proliferation experiment (EC50), HUVEC; settings: Homo sapiens
PBMC = test: Cell proliferation experiment (EC50), PBMC
[2] = test system: Human Acute Myelomonocytic Leukemia HL-60; test: Cell proliferation experiment (Alarm blue, 72 h, EC50); settings: HL-60 cells
Method in brief: as §1

[3] = test system: Human Breast Cancer MDA-MB-231; test: as above; settings: Homo sapiens; MDA-MB-231 cells
Method in brief: as §1

[4] = test system: Human Colon Cancer HCT-116; test: as above; settings: Homo sapiens, HCT-116; HCT116 cells
Method in brief: as §1

Human Colon Cancer HT-29 = test: as above; settings: Homo sapiens; HT-29 cells
Method in brief: as §1

[5] = test system: Human Glioma Cells U-87 MG; test: as above; settings: Homo sapiens; U-87MG cells
Method in brief: as §1

[6] = test system: Human Monocytic Leukemia THP-1; test: as above; settings: THP-1 cells
Method in brief: as §1

[7] = test system: Human Small Cell Lung Cancer NCI-H82; test: as above; settings: Homo sapiens, NCI-H82; NCIH82 cells
Method in brief: as §1

[8] = test system: Human cervical adenocarcinoma cells Hela; test: as above; settings: Homo sapiens
Method in brief: as §1

[9] = test system: Human Acute Lymphoblastic Leukemia Cells MOLT-4; test: as above; settings: MOL4-4 cells
Method in brief: as §1

Daudi = test: Cell proliferation experiment (EC50), Daudi; settings: Homo sapiens; Daudi cells
[10] = 6 h, western blot, read-out: BRD4 DC50 (6 h)
[11] = 6 h, western blot, read-out: PLK1 DC50 (6 h)
[12] = 24 h, western blot, read-out: BRD4 DC50 (24 h)
[13] = 24 h, western blot, read-out: PLK1 DC50 (24 h)

T2 sequence (P53350 whole entry): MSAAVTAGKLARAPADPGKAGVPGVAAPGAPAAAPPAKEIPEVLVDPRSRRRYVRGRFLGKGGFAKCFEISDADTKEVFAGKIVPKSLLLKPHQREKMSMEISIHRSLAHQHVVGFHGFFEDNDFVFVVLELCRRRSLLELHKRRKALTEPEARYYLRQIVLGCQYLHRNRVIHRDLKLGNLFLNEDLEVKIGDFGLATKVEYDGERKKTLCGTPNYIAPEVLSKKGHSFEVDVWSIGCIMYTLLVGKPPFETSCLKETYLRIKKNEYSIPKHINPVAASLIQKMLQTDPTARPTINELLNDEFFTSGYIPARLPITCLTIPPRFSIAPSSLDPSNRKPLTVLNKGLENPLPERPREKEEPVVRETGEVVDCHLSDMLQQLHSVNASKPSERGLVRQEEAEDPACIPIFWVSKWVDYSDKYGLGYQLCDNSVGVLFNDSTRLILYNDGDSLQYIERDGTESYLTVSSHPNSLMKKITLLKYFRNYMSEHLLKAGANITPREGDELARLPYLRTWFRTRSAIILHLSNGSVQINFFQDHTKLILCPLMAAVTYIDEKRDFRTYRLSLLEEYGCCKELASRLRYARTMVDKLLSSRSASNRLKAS

Compound	pEC50 ([1]; MV4;11 cells)	DC50 (BRD4; [10]) [nM]	DC50 (PLK1; [11]) [nM]	pEC50 (HUVEC)	pEC50 (PBMC)	pEC50 [2]	pEC50 [3]	pEC50 [4]	pEC50 (Human Colon Cancer HT-29)	pEC50 [5]	pEC50 ([1]; MV4-11, MV4;11 cells)	pEC50 [6]	pEC50 [7]	pEC50 [8]	pEC50 [9]	DC50 (BRD4; [12]) [nM]	DC50 (PLK1; [13]) [nM]	pEC50 (Daudi)	DC50 (BRD4; 24 h, read-out: BRD4 DC50 (nM) (24 h))	DC50 (PLK1; 24 h, read-out: PLK1 DC50 (nM) (24 h))
CC[C@@H]1C(=O)N(C)c2cnc(Nc3ccc(C(=O)NCCOCCNCCCCCCC(=O)Nc4cccc5c4CN(C4CCC(=O)NC4=O)C5=O)cc3OC)nc2N1C1CCCC1 (some centres unmarked) [UB-180655]	7.00 to 8.00	< 10	100 to 1000	< 6.00	< 6.00															
CC[C@@H]1C(=O)N(C)c2cnc(Nc3ccc(C(=O)NCCCNCCCCCC(=O)Nc4cccc5c4CN(C4CCC(=O)NC4=O)C5=O)cc3OC)nc2N1C1CCCC1 (some centres unmarked) [UB-180660]		10 to 100	< 10	< 6.00	< 6.00	6.00 to 7.00	6.00 to 7.00	6.00 to 7.00	6.00 to 7.00	6.00 to 7.00	7.00 to 8.00	6.00 to 7.00	< 6.00	6.00 to 7.00						
CC[C@@H]1C(=O)N(C)c2cnc(Nc3ccc(C(=O)NCCOCCOCCOCCNCCCCC(=O)Nc4cccc5c4CN(C4CCC(=O)NC4=O)C5=O)cc3OC)nc2N1Cc1ccc(Br)cc1 (some centres unmarked) [UB-180667]	7.00 to 8.00					6.00 to 7.00	6.00 to 7.00		6.00 to 7.00	6.00 to 7.00			6.00 to 7.00		6.00 to 7.00	< 10	< 10			
CC[C@@H]1C(=O)N(C)c2cnc(Nc3ccc(C(=O)NCCOCCNCCCCCCC(=O)Nc4cccc5c4CN(C4CCC(=O)NC4=O)C5=O)cc3OC)nc2N1Cc1ccc(Cl)s1 (some centres unmarked) [UB-180675]	7.00 to 8.00	< 10	< 10	< 6.00	< 6.00															
CC[C@@H]1C(=O)N(C)C2CNC(Nc3ccc(C(=O)NCCCNCCCC(=O)Nc4cccc5c4CN(C4CCC(=O)NC4=O)C5=O)cc3OC)NC2N1Cc1ccc(Cl)s1 (some centres unmarked) [UB-180678]	7.00 to 8.00	< 10	100 to 1000	6.00 to 7.00	6.00 to 7.00	6.00 to 7.00	6.00 to 7.00		6.00 to 7.00	6.00 to 7.00			6.00 to 7.00		6.00 to 7.00					
CC[C@@H]1C(=O)N(C)c2cnc(Nc3ccc(C(=O)NCc4cn(CCNCCC(=O)Nc5cccc6c5CN(C5CCC(=O)NC5=O)C6=O)nn4)cc3OC)nc2N1C1CCCC1 (some centres unmarked) [UB-180680]	7.00 to 8.00	< 10	< 10	< 6.00	< 6.00	6.00 to 7.00	6.00 to 7.00		6.00 to 7.00	6.00 to 7.00			6.00 to 7.00		6.00 to 7.00	< 10	10 to 100	6.00 to 7.00		
CC[C@@H]1C(=O)N(C)c2cnc(Nc3ccc(C(=O)NCc4cn(CCNCCCC(=O)Nc5cccc6c5CN(C5CCC(=O)NC5=O)C6=O)nn4)cc3OC)nc2N1C1CCCC1 (some centres unmarked) [UB-180681]	> 8.00	< 10	100 to 1000			6.00 to 7.00	6.00 to 7.00		6.00 to 7.00	6.00 to 7.00			6.00 to 7.00		6.00 to 7.00					
CC[C@@H]1C(=O)N(C)c2cnc(Nc3ccc(C(=O)NC4CCN(CCOCCNCC(=O)Nc5cccc6c5CN(C5CCC(=O)NC5=O)C6=O)CC4)cc3OC)nc2N1C1CCCC1 (some centres unmarked) [UB-180699]	7.00 to 8.00					6.00 to 7.00	< 6.00		6.00 to 7.00	6.00 to 7.00		6.00 to 7.00	6.00 to 7.00	6.00 to 7.00	6.00 to 7.00	< 10	< 10			
CC[C@@H]1C(=O)N(C)c2cnc(Nc3ccc(C(=O)NCc4cn(CCNCCOCC(=O)Nc5cccc6c5CN(C5CCC(=O)NC5=O)C6=O)nn4)cc3OC)nc2N1Cc1ccc(Cl)s1 (some centres unmarked) [UB-180720]	> 8.00					6.00 to 7.00	6.00 to 7.00	6.00 to 7.00	6.00 to 7.00	6.00 to 7.00		6.00 to 7.00	6.00 to 7.00	6.00 to 7.00	6.00 to 7.00				< 10	< 10
